What all share (assay type): cell-based
Experiment [1] deals with Moloney-murine leukemia virus. Put plainly: Antivirus effect on Moloney-murine leukemia virus in SC-1 cells (method of Rowe et al), Table 1. From the text:
(§1) The antivirus effect of the compound of general formula [II']of the invention was ascertained according to the test method by Rowe et al (J. W. Virology 1970, 42, 1136).
(§2) Virus: Moloney-murine leukemia virus.

Experiment [2] deals with Rous sarcoma virus (RSV). Put plainly: Effect on Rous sarcoma virus (RSV): inhibition of transformation of chick embryo fibroblast, Table 2. Conditions: 4TO7, RSV infected about 30 minutes, judged under microscope after 4 to 7 days, concentration at which transformation was inhibited, read-out: Antivirus effect (on RSV), Concentration. The procedure:
EXAMPLE 2. EFFECT ON ROUS SARCOMA VIRUS (RSV) Employing cultured cells of the first generation (chick embryo fibroblast),RSV was infected for about 30 minutes. To this were added the samples diluted stepwise, and, after 4 to 7 days, which stage the transformation of cells due to RSV infection was inhibited at was judged under microscope.

Experiment [3] deals with HIV (human immunodeficiency virus). The experiment in a line: Effect on HIV: inhibition of transformation of MT-4 cells due to HIV infection, Table 3. Conditions: Human immunodeficiency virus 1, MT4, 72 h, HIV infected 1 hour at 37° C, judged under microscope after 3 days, concentration at which transformation was inhibited, read-out: Antivirus effect (on HIV), Concentration. The protocol: EFFECT ON HIV (HUMAN IMMUNODEFICIENCY VIRUS)
(§3) Employing MT-4 cells, HIV was infected for 1 hour at 37° C. To this were added the samples diluted stepwise, and, after 3 days, which stage the transformation of cells due to HIV infection was inhibited at was judged under microscope.

Experiment [4] has as its system Moloney-murine leukemia virus, RSV, HIV. The experiment in a line: Antivirus effect, summary of Table 1 through 3. Conditions: as shown in Table 1 through 3. The procedure:
as §1, §2
Employing cultured cells of the first generation (chick embryo fibroblast),RSV was infected for about 30 minutes. To this were added the samples diluted stepwise, and, after 4 to 7 days, which stage the transformation of cells due to RSV infection was inhibited at was judged under microscope.
as §3

Setting [5] is: Moloney-murine leukemia virus, SC-1 cells, read-out: ED50 (the source's name).

The source of these data is patent US4954485A, “2',3'-dideoxy-4-thio-uridine derivatives, process for their preparation and antivirus agents using them” (priority 1987, dated 1990).

Read-outs that look alike come from different tables or passages of the source.

As for `Cc1cn([C@H]2C[C@H](N=[N+]=[N-])[C@@H](CO)O2)c(=O)[nH]c1=O` [AZT, 3Azido-3deoxy-thymidine], the EC50 in experiment [1] (SC-1, read-out: ED50) was 0.02 µM.
`O=c1[nH]c(=S)ccn1[C@H]1CC[C@@H](CO)O1` [Compound of invention, 2',3'-dideoxy-4-thio-uridine]: the EC50 in experiment [1] (setting [5]) worked out at 3.7 µM. In addition, the minimal effective concentration was 5 to 10 µg/mL in experiment [2] and 10 µg/mL in experiment [3]. Also, in experiment [4], the “antivirus effect compared with DDC” value was “excellent antivirus effect similar to that of DDC”.
With `Nc1ccn([C@H]2CC[C@@H](CO)O2)c(=O)n1` [DDC, 2',3Dideoxy-cytidine], the EC50 in experiment [1] (setting [5]) was 4 µM. Further, the results for the minimal effective concentration in experiment [2] and in experiment [3] were 0.5 to 1 µg/mL and 1 µg/mL, respectively.
